Tests used:
Format in all cases: cell-based
[1] = test system: S. flexneri Sf9380; experiment: Gentamicin protection assay, HeLa cell invasion by Sf9380; conditions: for invasion of HeLa cells by Sf9380 (bacteria recovered / inoculated): bacteria pre-treated 8 hours, untreated Sf9380 5.87×10^−2
Method: (§1) The growth curve of Sf9380 treated with or without potential PhoQ inhibitors at concentration 200 µmol/L were tested. […] The gentamicin protection assay was used as a cellular model to evaluate the inhibitory effect of the four potential PhoQ inhibitors. The bacteria were treated with each of the four potential PhoQ inhibitors in a serial dilution and grown for 8 hours. Next, the bacteria were inoculated and incubated with HeLa cells for 60 min prior to the addition of gentamicin to kill extracellular bacteria. For testing intracellular growth and spreading to adjacent cell, cells were further incubated for 290 min [9]. The results of the assays were expressed as the number of bacteria recovered from gentamicin-treated cells divided by the number of inoculated bacteria added to the cell. After lysates of HeLa cells were plated, the number of CFU that formed on LB agar were counted.
(§2) Figure 6 The effects of potential PhoQ inhibitors on virulence of Shigella. […] The bacteria pre-treated with potential PhoQ inhibitor were added to HeLa cells at a multiplicity of infection of 100. Then gentamicin was added to kill extracellular bacteria and cell lysates were plated onto LB plates, and the colonies were counted. The results of the assays were expressed as the number of bacteria recovered from gentamicin-treated cells divided by the number of inoculated bacteria added to the cell. S. flexneri Sf9380 (treated without DMSO), a clinical strain with strong virulence, served as the positive control for the cell invasion assay; E. coli ATCC 25922 (treated without DMSO), an avirulent strain, served as the negative control for the cell invasion assay; bacteria treated with 0.1% DMSO (the solvent of the potential PhoQ inhibitor) also served as a control for the cell invasion assay. Values are means ± standard deviations from 6 independent wells. *p<0.01 vs. Sf9380. (A) The effects of potential PhoQ inhibitors on cell invasion of S. flexneri Sf9380 (B) The effects of potential PhoQ inhibitors on intracellular growth S. flexneri Sf9380. (C) The effects of potential PhoQ inhibitors on cell invasion of S. flexneri 2a 301 phoQ/phoP knock-out mutant.
(§3) Bacterial ability to invade HeLa cells was tested with a gentamicin protection assay. HeLa cells were grown in six-well tissue culture plates to semi-confluent monolayers (DMEM, 10% FCS, 5% CO2). Sf9380 or Sf301 ΔphoQ/phoP was treated with potential PhoQ inhibitors for 8 hours in LB at 37°C (final concentrations of 100,50,25,12.5 or 6.25 µmol/L) prior to infection. The bacteria pre-treated with potential PhoQ inhibitor without washing, were added to semi-confluent HeLa cells at a multiplicity of infection of 100, at the same time the bacteria were diluted and plated onto LB agar plates. The CFUs were counted as initial bacterial number before added into HeLa cells. Then the plates were centrifuged at 900×g for 5 minutes. After incubating at 37°C for 60 minutes (For testing intracellular growth and spreading to adjacent cell, cells were further incubated for 290 min [9].), the cells were washed three times with PBS, and gentamicin was added to the medium to a final concentration of 10 µg/ml for 20 minutes at 37°C. After the incubation, the HeLa cells in each well were lysed in 1 ml of PBS containing 0.1% Triton X-100 for 10 minutes at room temperature. The lysates were diluted and plated onto LB agar plates in triplicate. Colonies grown on LB plates were counted. The results of the assays were expressed as the number of bacteria recovered from gentamicin-treated cells divided by the number of inoculated bacteria added to the cell. The cells were inoculated with untreated Sf9380 or Sf301 ΔphoQ/phoP (treated without DMSO) as a positive control and E. coli ATCC 25922, an avirulent strain treated without DMSO, as a negative control. […]

[2] = test system: S. flexneri Sf9380; experiment: Gentamicin protection assay, intracellular growth and spreading to adjacent cell of Sf9380; conditions: for intracellular growth and spreading to adjacent cell of Sf9380 (bacteria recovered / inoculated): further incubated 290 min, untreated Sf9380 0.12
Method: as §1, §2, §3

[3] = test system: S. flexneri 2a 301 phoQ/phoP knock-out mutant (Sf301 ΔphoQ/phoP); experiment: Gentamicin protection assay, HeLa cell invasion by phoQ/phoP knock-out mutant; conditions: HeLa cells; for cell invasion rate of Sf301 ΔphoQ/phoP: untreated mutant 0.069; for effect on cell invasion of Sf301 phoQ/phoP knock-out mutant: Figure 6C
Method: Bacterial ability to invade HeLa cells was tested with a gentamicin protection assay. HeLa cells were grown in six-well tissue culture plates to semi-confluent monolayers (DMEM, 10% FCS, 5% CO2). Sf9380 or Sf301 ΔphoQ/phoP was treated with potential PhoQ inhibitors for 8 hours in LB at 37°C (final concentrations of 100,50,25,12.5 or 6.25 µmol/L) prior to infection. The bacteria pre-treated with potential PhoQ inhibitor without washing, were added to semi-confluent HeLa cells at a multiplicity of infection of 100, at the same time the bacteria were diluted and plated onto LB agar plates. The CFUs were counted as initial bacterial number before added into HeLa cells. Then the plates were centrifuged at 900×g for 5 minutes. After incubating at 37°C for 60 minutes (For testing intracellular growth and spreading to adjacent cell, cells were further incubated for 290 min [9].), the cells were washed three times with PBS, and gentamicin was added to the medium to a final concentration of 10 µg/ml for 20 minutes at 37°C. After the incubation, the HeLa cells in each well were lysed in 1 ml of PBS containing 0.1% Triton X-100 for 10 minutes at room temperature. The lysates were diluted and plated onto LB agar plates in triplicate. Colonies grown on LB plates were counted. The results of the assays were expressed as the number of bacteria recovered from gentamicin-treated cells divided by the number of inoculated bacteria added to the cell. The cells were inoculated with untreated Sf9380 or Sf301 ΔphoQ/phoP (treated without DMSO) as a positive control and E. coli ATCC 25922, an avirulent strain treated without DMSO, as a negative control. DMSO is the solvent of the potential PhoQ inhibitor compounds; therefore, Sf9380 was also treated with the same amount of 0.1% DMSO as the other groups to control for any DMSO-specific effects. The cell invasion assay was performed in triplicate for each potential PhoQ inhibitor, and the assay was repeated twice.

[4] = Cytotoxicity MTT assay on Vero cells; conditions: African green monkey, highest concentration tested 200 µmol/L, read-out: CC50 on Vero cell
Method: The cytotoxicity of each potential PhoQ inhibitor towards a Vero cell line was analyzed by the traditional MTT assay. The CC50 values of all four compounds were higher than 200 µmol/L, the highest tested concentration of potential PhoQ inhibitors. As a control, an equal concentration of DMSO (0.1%) was added to a well of Vero cells, and no obvious cytotoxicity was observed (Table 1).
Cytotoxicity of the potential PhoQ inhibitors on cultured Vero cells was measured by using the Cell Proliferation Kit I (MTT) (Roche, Indianapolis, USA). An equal concentration of DMSO (0.1%) in the medium was used as a negative control. The cytotoxicity assay was performed in triplicate for each potential PhoQ inhibitor, and the assay for each potential PhoQ inhibitor was repeated twice. The results were converted to percentage of the control (cells only containing 0.1% DMSO) and CC50 (concentrations that produce a 50% cytotoxicity effect on Vero cell) of each potential PhoQ inhibitors was calculated using the Origin v7.0 software (OriginLab, Northampton, USA).

O=C(O)c1ccc(Cl)c(-c2ccc(/C=N/NC(=O)c3ccc(Br)cc3)o2)c1 [Compound 3]
invasion of HeLa cells by Sf9380 (bacteria recovered / inoculated) ([1]; 100 µmo/L): 1.95×10^−2 | effect on invasion of HeLa cells by Sf9380 ([1]; concentrations lower than 100 µmo/L): no obvious effects | times lower than untreated Sf9380, intracellular growth ([2]; 100 µmo/L): 2.6 times | intracellular growth and spreading to adjacent cell of Sf9380 (bacteria recovered / inoculated) ([2]; 100 µmo/L): 0.046 | cell invasion rate of Sf301 ΔphoQ/phoP ([3]; 100 µmo/L): 0.083 | effect on cell invasion of Sf301 phoQ/phoP knock-out mutant [3]: no obvious effects | CC50 [4]: > 200 µM

CCOc1ccccc1-c1cc(C(=O)N/N=C/c2ccc(OCc3ccccc3)c(OC)c2)c2ccccc2n1 [Compound 2]
times lower invasion than the control ([1]; 25 µmo/L, HeLa cells): 16.3 times | effect on invasion of HeLa cells by Sf9380 ([1]; concentrations lower than 25 µmo/L): no obvious effects | times lower than untreated Sf9380, intracellular growth ([2]; 25 µmo/L): 3.3 times | intracellular growth and spreading to adjacent cell of Sf9380 (bacteria recovered / inoculated) ([2]; 25 µmo/L): 0.036 | cell invasion rate of Sf301 ΔphoQ/phoP ([3]; 25 µmo/L): 0.102 | effect on cell invasion of Sf301 phoQ/phoP knock-out mutant [3]: no obvious effects | CC50 [4]: > 200 µM

O=C(Nc1ccc(C2(c3cccc(NC(=O)c4cccc5ccccc45)c3)c3ccccc3C(=O)c3ccccc32)cc1)c1ccc2ccccc2c1 [Compound 1]
times lower invasion than untreated Sf9380 ([1]; 12.5 µmo/L, HeLa cells): 4.3 times | invasion of HeLa cells by Sf9380 (bacteria recovered / inoculated) ([1]; 12.5 µmo/L): 1.36×10^−2 | effect on invasion of HeLa cells by Sf9380 ([1]; concentrations lower than 12.5 µmo/L): no obvious effects | times lower than untreated Sf9380, intracellular growth ([2]; 12.5 µmo/L): 1.96 times | intracellular growth and spreading to adjacent cell of Sf9380 (bacteria recovered / inoculated) ([2]; 12.5 µmo/L): 0.061 | cell invasion rate of Sf301 ΔphoQ/phoP ([3]; 12.5 µmo/L): 0.064 | effect on cell invasion of Sf301 phoQ/phoP knock-out mutant [3]: no obvious effects | CC50 [4]: > 200 µM

O=C(O)c1cc(-c2ccc(-c3ccccc3Cl)o2)nc2ccc3ccccc3c12 [Compound 4]
effect on invasion of HeLa cells by Sf9380 ([1]; 100 µmo/L): no effect | effect on cell intracellular growth of Sf9380 ([2]; 100 µmo/L): no obvious effect | intracellular growth and spreading to adjacent cell of Sf9380 (bacteria recovered / inoculated) ([2]; 100 µmo/L): 0.12 | cell invasion rate of Sf301 ΔphoQ/phoP ([3]; 100 µmo/L): 0.053 | CC50 [4]: > 200 µM
